# Patent US9925166B2, “Methods of treating an overweight or obese subject” (Zafgen, Inc., priority 2008, dated 2018)
# Where “and” joins values, the source holds several entries; their conditions need not be identical. Equal entries are not always repeated. Where two headings read alike, the source gives them in different places.
# Tests used:
# [1] = mouse, 33 mg/kg/day; Ingbar et al.; cited from earlier work
# [2] = Plasma concentration after oral administration in a non-enterically coated capsule (Example 7); type: in vivo, Sprague-Dawley rats; conditions: 30 mg/kg capsule oral
# Experimental: A study was undertaken to investigate absorption of fumagillin orally administered in a capsule. Five male Sprague-Dawley rats were fasted, and were then each orally administered a non-enterically coated capsule containing 30 mg/kg of fumagillin. […] (graphically illustrated as 0.17), 20 min. (graphically illustrated as 0.33), 30 min. […]
# MetAP-2 = molecular target: T1, MetAP-2 (Mus musculus, UniProt O08663); test: ELISA assay of MetAP-2 binding (free MetAP-2) in adipose tissue lysates of dosed diet-induced obese mice; conditions: fumagillin orally 3 mg/kg or 10 mg/kg; diet-induced obese mice; FIG. 1
# T1 construct: from tissue; host or cells: adipose tissue of diet-induced obese mice
# Experimental: Diet-induced obese mice were orally (p.o.) administered fumagillin (3 mg/kg or 10 mg/kg; Medivet), subcutaneously administered (s.c.) TNP-470 (1 mg/kg, 3 mg/kg, 10 mg/kg, or 30 mg/kg; synthesized by standard semi-synthetic processes as described in European Patent EP 0 357 061), or administered a solution of 10% dimethyl sulfoxide (DMSO; control; Sigma-Aldrich). Mice were sacrificed and adipose tissue samples were obtained.
# An ELISA assay of MetAP-2 binding was conducted with tissue lysates prepared from the adipose tissue samples. The MetAP-2 ELISA is a quantitative assay to determine the amount of free MetAP-2 in tissue or cell lysates, i.e., MetAP-2 not covalently bound to fumagillin or TNP-470. The assay takes advantage of the fact that biotinylated fumagillin can bind to the catalytic site of the MetAP-2 enzyme only if this site has not already been derivatized by fumagillin or TNP-470. The biotinylated MetAP-2-inhibitor complex was captured on a streptavidin-coated plate and detected with a rabbit anti-MetAP-2 antibody (Zymed Laboratories Inc.). Horseradish peroxidase-conjugated anti-rabbit immunoglobulin G (IgG) was added to detect the MetAP-2 antibody immobilized to the streptavidin-coated plate with its covalently bound biotinylated fumagillin. Tetramethylbenzidine (TMB) substrate was added and the reaction was stopped by addition of sulfuric acid. Analysis was performed by determining absorption at 450 nm. Human recombinant MetAP-2 (R&D Systems), pre-bound to biotinylated fumagillin, was used to generate a standard curve.
# diet-induced obese mice = test: Weight loss study in diet-induced obese mice, oral gavage 28 days (Example 2); type: in vivo, C57BL/6NTac mice; conditions: for weight loss as a percentage of pre-study weight: 28 days, end of study
# Experimental: The mice in this study were not genetically obese, but prior to and during the study, obesity was induced by a high-fat diet. Twelve week-old C57BL/6NTac mice, maintained on a 60% fat diet prior to and during the study, were separated into six groups, eight animals per group.
# Fumagillin was administered to four of the diet-induced obese mice groups by oral gavage as a solution in 10% DMSO, at doses of 1 mg/kg/day, 3 mg/kg/day, 10 mg/kg/day and 30 mg/kg/day respectively, for 28 days. A fifth group received 10% DMSO vehicle-only (control) by oral gavage, and the sixth group received neither vehicle nor fumagillin (naïve). Body weight was measured on day 0 (pre-study) and subsequently on day 3, day 8, day 15, day 22, and day 29 of the study. Daily food consumption was also recorded.
# [3] = Plasma concentration after intraduodenal administration (Example 8); type: in vivo, Sprague-Dawley rats; conditions: 30 mg/kg intraduodenal; for ZGN-201 Conc. in Rat Plasma, individual animals: listed as ZGN-201
# Experimental: A study was undertaken to investigate absorption of fumagillin from the small intestine. Five male Sprague-Dawley rats were fasted, and were then catheterized into the duodenum, 1.5 centimeters below the stomach. The stomachs of these rats were tied off so administration would bypass the stomach of each rat. Rats were then infused with 30 mg/kg of fumagillin and an equal volume of Trypan blue (Invitrogen). To determine absorption of fumagillin into the small intestine, blood was collected from the jugular vein of each rat at time points of 0 min., 5 min. (graphically illustrated as 0.083), 15 min. (graphically illustrated as 0.25), 30 min. (graphically illustrated as 0.5), 2 hrs, and 8 hrs.
# T1 sequence (O08663 whole entry): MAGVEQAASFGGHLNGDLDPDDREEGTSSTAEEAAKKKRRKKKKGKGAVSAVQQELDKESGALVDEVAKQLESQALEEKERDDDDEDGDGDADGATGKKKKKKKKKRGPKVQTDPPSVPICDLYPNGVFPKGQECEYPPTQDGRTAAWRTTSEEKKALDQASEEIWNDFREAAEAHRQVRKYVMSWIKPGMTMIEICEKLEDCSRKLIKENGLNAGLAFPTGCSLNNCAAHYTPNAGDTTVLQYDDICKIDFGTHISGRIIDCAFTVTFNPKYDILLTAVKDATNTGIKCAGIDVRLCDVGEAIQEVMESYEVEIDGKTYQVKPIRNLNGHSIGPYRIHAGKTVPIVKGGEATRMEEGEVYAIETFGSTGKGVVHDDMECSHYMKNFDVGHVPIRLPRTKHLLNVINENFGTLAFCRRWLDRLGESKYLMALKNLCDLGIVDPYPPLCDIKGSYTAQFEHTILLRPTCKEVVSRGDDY
smiles,measurement,setting,value
CO[C@@H]1[C@H](OC(=O)/C=C/C=C/C=C/C=C/C(=O)O)CC[C@]2(CO2)[C@H]1[C@@]1(C)O[C@@H]1CC=C(C)C [fumagillin],side-effect of administration (wasting),[1],severe weight loss
same,"ZGN-201 Conc. in Rat Plasma, individual animals","[2]; male rats 1-5, time point 0 hr",BQL (BQL: 1 ng/mL)
same,"ZGN-201 Conc. in Rat Plasma, individual animals","[2]; male rats 1-5, time point 0.17 hr",BQL (BQL: 1 ng/mL)
same,"ZGN-201 Conc. in Rat Plasma, individual animals","[2]; male rats 1-5, time point 0.33 hr, listed as ZGN-201",5.3 ng/mL and 1.9 ng/mL and 1.6 ng/mL and 1.8 ng/mL and 5.2 ng/mL
same,"ZGN-201 Conc. in Rat Plasma, individual animals","[2]; male rats 1-5, time point 0.5 hr, listed as ZGN-201",14.3 ng/mL and 4.5 ng/mL and 3.6 ng/mL and 3 ng/mL and 11.4 ng/mL
same,"ZGN-201 Conc. in Rat Plasma, individual animals","[2]; male rats 1-5, time point 1 hr, listed as ZGN-201",36.1 ng/mL and 14.5 ng/mL and 8.9 ng/mL and 3.6 ng/mL and 117.9 ng/mL
same,"ZGN-201 Conc. in Rat Plasma, individual animals","[2]; male rats 1-5, time point 2 hr, listed as ZGN-201",81.2 ng/mL and 98.2 ng/mL and 125.4 ng/mL and 9.5 ng/mL and 156.4 ng/mL
same,"ZGN-201 Conc. in Rat Plasma, individual animals","[2]; male rats 1-5, time point 8 hr, listed as ZGN-201",36.6 ng/mL and 47.1 ng/mL and 141.3 ng/mL and 31.6 ng/mL and 116.8 ng/mL
same,absorption through the stomach,[2]; rats,poorly absorbed through the stomach
same,time after administration at which absorption is first observed,[2]; rats,20 min
same,time of peak absorption after administration,[2]; rats,approximately 2 hrs
same,maximal concentration absorbed into the blood,"[2]; rats, time point 2",approximately 100 ng/ml
same,concentration at 0.33 hr,"[2]; male, Sprague-Dawley, rat, plasma, oral, 30 mg/kg, male rats, time point 0.33 hr, read-out: ZGN-201 Conc. in Rat Plasma, Mean",3 ng/mL
same,concentration at 0.5 hr,"[2]; male, Sprague-Dawley, rat, plasma, oral, 30 mg/kg, male rats, time point 0.5 hr, read-out: ZGN-201 Conc. in Rat Plasma, Mean",7 ng/mL
same,concentration at 1 hr,"[2]; male, Sprague-Dawley, rat, plasma, oral, 30 mg/kg, male rats, time point 1 hr, read-out: ZGN-201 Conc. in Rat Plasma, Mean",36 ng/mL
same,concentration at 2 hr,"[2]; male, Sprague-Dawley, rat, plasma, oral, 30 mg/kg, male rats, time point 2 hr, read-out: ZGN-201 Conc. in Rat Plasma, Mean",94 ng/mL
same,concentration at 8 hr,"[2]; male, Sprague-Dawley, rat, plasma, oral, 30 mg/kg, male rats, time point 8 hr, read-out: ZGN-201 Conc. in Rat Plasma, Mean",75 ng/mL
same,binding to MetAP-2 in adipose tissue,MetAP-2,binds MetAP-2 in adipose tissue
same,neutrophil counts compared to vehicle-only mice,diet-induced obese mice; 1 mg/kg and 3 mg/kg oral,decreased
same,weight loss as a percentage of pre-study weight,diet-induced obese mice; 1 mg/kg/day oral gavage,15%
same,weight loss as a percentage of pre-study weight,diet-induced obese mice; 3 mg/kg/day oral gavage,18%
same,neutrophil counts compared to vehicle-only mice,diet-induced obese mice; 10 mg/kg and 30 mg/kg oral,increased
same,weight loss as a percentage of pre-study weight,diet-induced obese mice; 10 mg/kg/day oral gavage,21%
same,weight loss as a percentage of pre-study weight,diet-induced obese mice; 30 mg/kg/day oral gavage,33%
same,food consumption among dose groups,"diet-induced obese mice; 30 mg/kg/day oral, 30 day period",consuming the least amount of food
same,food consumption vs vehicle-only and naive mice,"diet-induced obese mice; 1-30 mg/kg/day oral, 30 day period",consumed less food
same,"leukocytes, particularly lymphocytes (hematology)","diet-induced obese mice; fumagillin dose groups, oral",decrease
same,platelets,"diet-induced obese mice; fumagillin dose groups, oral",No decrease
same,cholesterol levels,"diet-induced obese mice; fumagillin treatment, oral",reductions
same,serum glucose levels,"diet-induced obese mice; fumagillin treatment, oral",reductions
same,non-effective dose,"diet-induced obese mice; oral gavage, weight loss, not identified, concluded",below 1 mg/kg/day
same,"ZGN-201 Conc. in Rat Plasma, individual animals","[3]; male rats 1, 3, 4, 5, time point 0 hr",BQL (BQL: 1 ng/mL)
same,"ZGN-201 Conc. in Rat Plasma, individual animals","[3]; male rats 1, 3, 4, 5, time point 0.083 hr",30286.5 ng/mL and 30532.1 ng/mL and 31057 ng/mL
same,"ZGN-201 Conc. in Rat Plasma, individual animals","[3]; male rats 1, 3, 4, 5, time point 0.25 hr",9275.7 ng/mL and 9903.7 ng/mL and 13584.2 ng/mL
same,"ZGN-201 Conc. in Rat Plasma, individual animals","[3]; male rats 1, 3, 4, 5, time point 0.5 hr",1104.6 ng/mL and 2295 ng/mL and 1109.8 ng/mL and 1225.1 ng/mL
same,"ZGN-201 Conc. in Rat Plasma, individual animals","[3]; male rats 1, 3, 4, 5, time point 2 hr",95 ng/mL and 66.5 ng/mL and 79.3 ng/mL and 27.5 ng/mL
same,"ZGN-201 Conc. in Rat Plasma, individual animals","[3]; male rats 1, 3, 4, 5, time point 8 hr",9 ng/mL and 6.9 ng/mL and 6.8 ng/mL
same,absorption profile compared to absorption through the stomach,[3]; rats,large absorption profile in the small intestine
same,concentration at 0 hr,"[3]; male, Sprague-Dawley, rat, plasma, other: intraduodenal, 30 mg/kg, male rats 1, 3, 4, 5, time point 0 hr, read-out: ZGN-201 Conc. in Rat Plasma, individual animals",1 ng/mL
same,concentration at 0.083 hr,"[3]; male, Sprague-Dawley, rat, plasma, other: intraduodenal, 30 mg/kg, male rats 1, 3, 4, 5, time point 0.083 hr, read-out: ZGN-201 Conc. in Rat Plasma, individual animals",31400 ng/mL
same,concentration at 0.25 hr,"[3]; male, Sprague-Dawley, rat, plasma, other: intraduodenal, 30 mg/kg, male rats 1, 3, 4, 5, time point 0.25 hr, read-out: ZGN-201 Conc. in Rat Plasma, individual animals",7710 ng/mL
same,concentration at 8 hr,"[3]; male, Sprague-Dawley, rat, plasma, other: intraduodenal, 30 mg/kg, male rats 1, 3, 4, 5, time point 8 hr, read-out: ZGN-201 Conc. in Rat Plasma, individual animals",11.9 ng/mL
same,concentration at 0.083 hr,"[3]; male, Sprague-Dawley, rat, plasma, other: intraduodenal, 30 mg/kg, male rats, time point 0.083 hr, read-out: ZGN-201 Conc. in Rat Plasma, Mean",25100 ng/mL
same,concentration at 0.25 hr,"[3]; male, Sprague-Dawley, rat, plasma, other: intraduodenal, 30 mg/kg, male rats, time point 0.25 hr, read-out: ZGN-201 Conc. in Rat Plasma, Mean",9200 ng/mL
same,concentration at 0.5 hr,"[3]; male, Sprague-Dawley, rat, plasma, other: intraduodenal, 30 mg/kg, male rats, time point 0.5 hr, read-out: ZGN-201 Conc. in Rat Plasma, Mean",1730 ng/mL
same,concentration at 2 hr,"[3]; male, Sprague-Dawley, rat, plasma, other: intraduodenal, 30 mg/kg, male rats, time point 2 hr, read-out: ZGN-201 Conc. in Rat Plasma, Mean",506 ng/mL
same,concentration at 8 hr,"[3]; male, Sprague-Dawley, rat, plasma, other: intraduodenal, 30 mg/kg, male rats, time point 8 hr, read-out: ZGN-201 Conc. in Rat Plasma, Mean",20 ng/mL
same,concentration at 5 min,"[3]; male, Sprague-Dawley, rat, plasma, other: intraduodenal, 30 mg/kg, rats, 5 min. from administration (time point 0.083), read-out: amount of absorption by the small intestine",3000 ng/mL
